Assay results taken from ChEMBL document CHEMBL1201862, “PubChem BioAssay data set” (2004).
Structures can show the parent of a compound that is named as a salt.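 Test compounds were applied to cells in 96-well plates for 48 hours at 5 doses. Abbreviation: GI50, concentration required for 50% inhibition of growth.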 Activity calls are given as the source filed them. Cut-off read from the data, not from the text of the source: active = GI50 up to about 1.1 µM and inactive = higher.

Key:
Assay in all cases: NCI anticancer screen, dose series, 48 h
[1] = system: HOP-62
[2] = system: NCI-H226
[3] = system: MDA-N
[4] = system: MDA-MB-435
[5] = system: SF-295
[6] = system: NCI/ADR-RES
[7] = system: DU-145
[8] = system: RPMI-8226
[9] = system: MDA-MB-231
[10] = system: NCI-H460
[11] = system: M14
[12] = system: CCRF-CEM
[13] = system: BT-549
[14] = system: A549
[15] = system: SNB-75
[16] = system: 786-0
[17] = system: T47D
[18] = system: Hs-578T
[19] = system: SNB-19
[20] = system: EKVX

Row | Compound | GI50 [1] | GI50 [2] | GI50 [3] | GI50 [4] | GI50 [5] | GI50 [6] | GI50 [7] | GI50 [8] | GI50 [9] | GI50 [10] | GI50 [11] | GI50 [12] | GI50 [13] | GI50 [14] | GI50 [15] | GI50 [16] | GI50 [17] | GI50 [18] | GI50 [19] | GI50 [20]
1 | CC(C)C[C@H](NC(=O)[C@@H](Cc1cccc2ccccc12)NC(=O)N1CCOCC1)B(O)O | 16 µM (inactive) | 1.61 µM (inactive) | 2.59 µM (inactive) | 1.92 µM (inactive) | 14 µM (inactive) | 51.4 µM (inactive) | 10.9 µM (inactive) | 2.52 µM (inactive) | 4.48 µM (inactive) | 18.5 µM (inactive) | 3.11 µM (inactive) | 1.57 µM (inactive) | 3.99 µM (inactive) | 19.8 µM (inactive) | 1.18 µM (inactive) | 4.79 µM (inactive) | 2.45 µM (inactive) | 3.84 µM (inactive) | 9.77 µM (inactive) | 14.3 µM (inactive)
2 | O=C(O)C(Oc1nc(S)nc(S)n1)(c1ccc(Cl)cc1)c1ccc(Cl)cc1 | > 100 µM (inactive) | > 100 µM (inactive) | > 100 µM (inactive) | > 100 µM (inactive) | > 100 µM (inactive) | > 100 µM (inactive) | > 100 µM (inactive) | > 100 µM (inactive) | > 100 µM (inactive) | > 100 µM (inactive) | > 100 µM (inactive) |  | > 100 µM (inactive) | > 100 µM (inactive) | > 100 µM (inactive) | > 100 µM (inactive) | > 100 µM (inactive) | > 100 µM (inactive) | > 100 µM (inactive) | > 100 µM (inactive)
3 | N#Cc1c(SCc2ccccc2)nc(-c2ccccc2)[nH]c1=S | 19.8 µM (inactive) | 26.5 µM (inactive) | 22.6 µM (inactive) | 24 µM (inactive) | 22.4 µM (inactive) | 23.5 µM (inactive) | 42 µM (inactive) | 24.7 µM (inactive) | 37.4 µM (inactive) | 23.2 µM (inactive) | 29.9 µM (inactive) | 34.3 µM (inactive) | 20.6 µM (inactive) | 30.8 µM (inactive) | 19.1 µM (inactive) | 22.3 µM (inactive) | 22.4 µM (inactive) | 32.1 µM (inactive) | 29.9 µM (inactive) | 31.5 µM (inactive)
4 | C=C1CC(CN2CCC(=O)NC2=O)(c2ccccc2)OC1=O (centres undefined) | 21.3 µM (inactive) | 15.6 µM (inactive) | 10.8 µM (inactive) | 8.89 µM (inactive) | 20.7 µM (inactive) | 11.6 µM (inactive) | 15.9 µM (inactive) | 2.19 µM (inactive) | 15 µM (inactive) | 19.4 µM (inactive) | 3.08 µM (inactive) | 1.84 µM (inactive) | 7.21 µM (inactive) | 16.9 µM (inactive) | 18.1 µM (inactive) | 4.47 µM (inactive) | 3.13 µM (inactive) | 16.1 µM (inactive) | > 41.4 µM (inactive) | 18.8 µM (inactive)
5 | COc1ccc(/C=C\c2cc(OC)c(OC)c(OC)c2)cc1OC | 0.128 µM (active) | 0.056 µM (active) | 0.0165 µM (active) | 0.0184 µM (active) | 0.108 µM (active) | 0.222 µM (active) | 0.286 µM (active) | 0.162 µM (active) | 0.472 µM (active) | 0.142 µM (active) | 0.139 µM (active) | 0.13 µM (active) | 0.912 µM (active) | 0.239 µM (active) | 0.098 µM (active) | 0.198 µM (active) | 22.2 µM (inactive) | 0.0604 µM (active) | 0.153 µM (active) | 0.188 µM (active)
6 | O=C(O)C1CC(c2ccc(F)cc2)=Nc2ccc(F)cc2S1 (centres undefined) |  | > 100 µM (inactive) | > 100 µM (inactive) | > 100 µM (inactive) | > 100 µM (inactive) | > 100 µM (inactive) | > 100 µM (inactive) | > 100 µM (inactive) | > 100 µM (inactive) | > 100 µM (inactive) | 68.2 µM (inactive) | > 100 µM (inactive) | > 100 µM (inactive) | > 100 µM (inactive) | > 100 µM (inactive) | > 100 µM (inactive) | > 100 µM (inactive) | > 100 µM (inactive) | > 100 µM (inactive) | > 100 µM (inactive)
7 | COc1ccc(C2Oc3ccc(Cl)cc3C=C2[N+](=O)[O-])cc1OC (centres undefined) | 1.49 µM (inactive) | 1.64 µM (inactive) | 0.231 µM (active) | 0.15 µM (active) | 1.48 µM (inactive) | 0.456 µM (active) | 1.62 µM (inactive) | 0.229 µM (active) | 1.27 µM (inactive) | 2.38 µM (inactive) | 0.231 µM (active) | 0.0413 µM (active) | 1.15 µM (inactive) | 1.83 µM (inactive) | 1.13 µM (inactive) | 0.388 µM (active) | 1.52 µM (inactive) | 1.07 µM (active) | 1.92 µM (inactive) | 2.72 µM (inactive)
8 | O=S1(=O)NC2CCC3NS(=O)(=O)NC4CCC(N1)N4S(=O)(=O)N23 (centres undefined) | > 100 µM (inactive) | > 100 µM (inactive) | > 100 µM (inactive) | > 100 µM (inactive) | > 100 µM (inactive) | > 100 µM (inactive) | > 100 µM (inactive) | > 100 µM (inactive) | > 100 µM (inactive) | > 100 µM (inactive) | > 100 µM (inactive) |  | > 100 µM (inactive) | > 100 µM (inactive) | > 100 µM (inactive) | > 100 µM (inactive) | > 100 µM (inactive) | > 100 µM (inactive) | > 100 µM (inactive) | > 100 µM (inactive)
9 | NCCOc1cccc(C2(N3CCCCC3)CCCCC2)c1 | 92.5 µM (inactive) | > 100 µM (inactive) | 18.5 µM (inactive) | 17.1 µM (inactive) | 28.8 µM (inactive) | > 100 µM (inactive) | > 100 µM (inactive) | 20.9 µM (inactive) | 21 µM (inactive) | 41.5 µM (inactive) | 16.4 µM (inactive) | 16.7 µM (inactive) | 19.1 µM (inactive) | 37.2 µM (inactive) | 32.7 µM (inactive) | 13.3 µM (inactive) | 52.6 µM (inactive) | 16.9 µM (inactive) | > 100 µM (inactive) | 21.5 µM (inactive)
10 | O=c1oc2ccc3ccccc3c2cc1-c1cn2ccccc2n1 | 52.6 µM (inactive) | > 100 µM (inactive) | > 100 µM (inactive) | > 100 µM (inactive) | 37.2 µM (inactive) | > 100 µM (inactive) | > 100 µM (inactive) | > 100 µM (inactive) | 24.2 µM (inactive) | > 100 µM (inactive) | > 100 µM (inactive) | > 100 µM (inactive) | > 100 µM (inactive) | 24.7 µM (inactive) | > 100 µM (inactive) | 37.2 µM (inactive) | > 100 µM (inactive) | 35.6 µM (inactive) |  | 30.5 µM (inactive)
11 | CC1=C(C)C(=O)C(C2=C(C3=CC(=O)C(C)=C(C)C3=O)C(=O)C(C)=C(C)C2=O)=CC1=O | 18.7 µM (inactive) | 11 µM (inactive) | 2.65 µM (inactive) | 3.52 µM (inactive) | 17.7 µM (inactive) | 1.13 µM (inactive) | 14 µM (inactive) |  | 2.07 µM (inactive) | 14.9 µM (inactive) | 10 µM (inactive) | > 100 µM (inactive) | 10 µM (inactive) | 30.3 µM (inactive) | 16.6 µM (inactive) | 5.06 µM (inactive) | 2.75 µM (inactive) | 16.1 µM (inactive) | > 56.8 µM (inactive) | 20.8 µM (inactive)
12 | NCCc1ccc(S(=O)(=O)O)cc1[N+](=O)[O-] | > 100 µM (inactive) | > 100 µM (inactive) | > 100 µM (inactive) | > 100 µM (inactive) | > 100 µM (inactive) | > 100 µM (inactive) | > 100 µM (inactive) | > 100 µM (inactive) | > 100 µM (inactive) | > 100 µM (inactive) | > 100 µM (inactive) | > 100 µM (inactive) | > 100 µM (inactive) | > 100 µM (inactive) | > 100 µM (inactive) | > 100 µM (inactive) | > 100 µM (inactive) | > 100 µM (inactive) | > 100 µM (inactive) | > 100 µM (inactive)
13 | O=[N+]([O-])c1ccc2c(c1)Nc1c3ccccc3nc3cccc-2c13 | 2.07 µM (inactive) | 25.9 µM (inactive) | 3.62 µM (inactive) | 4.23 µM (inactive) | 0.482 µM (active) | 2.82 µM (inactive) | 0.593 µM (active) | 4.49 µM (inactive) | 2.41 µM (inactive) | 0.789 µM (active) | 3.21 µM (inactive) | 1.84 µM (inactive) | 16.3 µM (inactive) | 2.16 µM (inactive) | 3.61 µM (inactive) | 1.02 µM (active) | 3.95 µM (inactive) | 6.53 µM (inactive) | 17.3 µM (inactive) | 11.6 µM (inactive)
14 | CN[C@@H]1[C@H](O)[C@H](NC)[C@H]2O[C@@]3(O)C(=O)C[C@@H](C)O[C@H]3O[C@@H]2[C@H]1O [SPECTINOMYCIN SULFATE] | > 100 µM (inactive) | > 100 µM (inactive) | > 100 µM (inactive) | > 100 µM (inactive) | > 100 µM (inactive) | > 100 µM (inactive) | > 100 µM (inactive) | > 100 µM (inactive) | > 100 µM (inactive) | > 100 µM (inactive) | > 100 µM (inactive) | > 100 µM (inactive) | > 100 µM (inactive) |  | > 100 µM (inactive) | > 10 µM (inactive) | > 100 µM (inactive) | > 100 µM (inactive) | > 100 µM (inactive) | > 100 µM (inactive)
